Test system: Zymosan-sensitized rats
Assay: Rodent model of zymosan-induced hyperalgesia: visceromotor response to colorectal distension
Assay type: in vivo, Adult male Sprague-Dawley rats
Details: intracolonic zymosan (1 mL, 25 mg/mL), CRD 80 mm Hg, 20 seconds, four hours after zymosan, baseline = 100% of control
Excerpt: Protocol for Evaluation of (E)-4-(1,3-bis(cyclohexylmethyl)-1,2,3,6-tetrahydro-2,6-dioxo-9H-purin-8-yl)cinnamic acid nonaethylene glycol methyl ether ester in a Rodent Model of Zymosan-Induced Hyperalgesia
Adult male Sprague-Dawley rats (400-425 g) housed 1-2 per cage in the animal care facility at the University of Iowa (approved by the American Association for Accreditation of Laboratory Animal Care). All experimental procedures were approved by the Institutional Animal Care and Use Committee at the University of Iowa.
Rats were deeply anesthetized with pentobarbital sodium (45 mg/kg) administered intraperitoneally. […]
The descending colon and rectum were distended by pressure-controlled inflation of a 7-8-cm-long flexible latex balloon tied around a flexible tube. […] Intracolonic pressure was continuously monitored by the aid of a pressure control device. Response was quantified as the visceromotor response (VMR), a contraction of the abdominal and hindlimb musculature. EMG activity produced by contraction of the external oblique musculature was quantified using Spike2 software (Cambridge Electronic Designs). Each distension trial lasted 60 seconds, and EMG activity was quantitated in 1-second bins for 20 seconds before distension (baseline), during distention, and 20 seconds after distention. The increase in total number of recorded counts during distention is defined as the response. […]

COCCOCCOCCOCCOCCOCCOCCOCCOCCOC(=O)/C=C/c1ccc(-c2nc3c([nH]2)c(=O)n(CC2CCCCC2)c(=O)n3CC2CCCCC2)cc1 [(E)-4-(1,3-bis(cyclohexylmethyl)-1,2,3,6-tetrahydro-2,6-dioxo-9H-purin-8-yl)cinnamic acid nonaethylene glycol methyl ether ester]
response to colorectal distention (CRD) (as a percent of control) (12.5 mg/kg oral gavage at time 0 and 16 hours): effectively decreased the response to colorectal distention down to baseline levels
response to colorectal distention (CRD) (as a percent of control) (25 mg/kg oral gavage at time 0 and 16 hours): effectively decreased the response to colorectal distention down to baseline levels

— patent publication EP1372661B1, “GLYCOL DERIVATVES OF XANTHINES FOR TREATING IRRITABLE BOWEL SYNDROME” (SMITHKLINE BEECHAM CORPORATION, priority 2001, dated 2002)
